“Also recorded” adds a separate entry of the source.
Legend:
5XFAD AD-Tg mice [1] = assay: RT-qPCR of choroid plexus (CP) in 5XFAD AD-Tg mice; format: in vivo, mouse
Experimental: Total RNA of the hippocampal dentate gyrus (DG) was extracted with TRI Reagent (Molecular Research Center) and purified from the lysates using an RNeasy Kit (Qiagen). Total RNA of the choroid plexus was extracted using an RNA MicroPrep Kit (Zymo Research). mRNA (1 μg) was converted into cDNA using a High Capacity cDNA Reverse Transcription Kit (Applied Biosystems). The expression of specific mRNAs was assayed using fluorescence-based quantitative real-time PCR (RT-qPCR). RT-qPCR reactions were performed using Fast-SYBR PCR Master Mix (Applied Biosystems). Quantification reactions were performed in triplicate for each sample using the standard curve method. Peptidylprolyl isomerase A (ppia) was chosen as a reference (housekeeping) gene. The amplification cycles were 95° C. for 5 s, 60° C. for 20 s, and 72° C. for 15 s. […] For ifn-γ and ppia gene analysis, the cDNA was pre-amplified in 14 PCR cycles with non-random PCR primers, thereby increasing the sensitivity of the subsequent real-time PCR analysis, according to the manufacturer's protocol (PreAmp Master Mix Kit; Applied Biosystems). mRNA expression was determined using TaqMan RT-qPCR, according to the manufacturer's instructions (Applied Biosystems). All RT-qPCR reactions were performed and analyzed using StepOne software V2.2.2 (Applied Biosystems). […]

5XFAD AD-Tg mice [2] = assay: Immune cell / mo-Mϕ infiltration of brain in 5XFAD AD-Tg mice (flow cytometry, BM chimeras); format: in vivo, mouse
Experimental: Tissue processing and immunohistochemistry were performed on paraffin embedded sectioned mouse (6 μm thick) and human (10 μm thick) brains. For human ICAM-1 staining, primary mouse anti-ICAM (1:20 Abcam; ab2213) antibody was used. Slides were incubated for 10 min with 3% H2O2, and a secondary biotin-conjugated anti-mouse antibody was used, followed by biotin/avidin amplification with Vectastain ABC kit (Vector Laboratories). Subsequently, 3,3′-diaminobenzidine (DAB substrate) (Zytomed kit) was applied; slides were dehydrated and mounted with xylene-based mounting solution. For tissue stainings, mice were transcardially perfused with PBS prior to tissue excision and fixation. CP tissues were isolated under a dissecting microscope (Stemi DV4; Zeiss) from the lateral, third, and fourth ventricles of the brain. For whole mount CP staining, tissues were fixated with 2.5% paraformaldehyde (PFA) for 1 hour at 4° C., and subsequently transferred to PBS containing 0.05% sodium azide. Prior to staining, the dissected tissues were washed with PBS and blocked (20% horse serum, 0.3% Triton X-100, and PBS) for 1 h at room temperature. Whole mount staining with primary antibodies (in PBS containing 2% horse serum and 0.3% Triton X-100), or secondary antibodies, was performed for 1 h at room temperature. Each step was followed by three washes in PBS. The tissues were applied to slides, mounted with Immu-mount (9990402, from Thermo Scientific), and sealed with cover-slips. For staining of sectioned brains, two different tissue preparation protocols (paraffin embedded or microtomed free-floating sections) were applied, as previously described (Baruch et al, 2013; Kunis et al, 2013). The following primary antibodies were used: mouse anti-Aβ (1:300, Covance, #SIG-39320); rabbit anti-GFP (1:100, MBL, #598); rat anti-CD68 (1:300, eBioscience, #14-0681); rat anti-ICAM-1 (1:200, Abcam, #AB2213); goat anti-GFP (1:100, Abcam, #ab6658); rabbit anti-IBA-1 (1:300, Wako, #019-19741); goat anti-IL-10 (1:20, R&D systems, #AF519); rat anti-Foxp3 (1:20, eBioscience, #13-5773-80); rabbit anti-CD3 (1:500, Dako, #IS503); mouse anti-ZO-1, mouse anti-E-Cahedrin, and rabbit anti-Claudin-1 (all 1:100, Invitrogen, #33-9100, #33-4000, #51-9000); rabbit anti-GFAP (1:200, Dako, #Z0334). […] Microscopic analysis, was performed using a fluorescence microscope (E800; Nikon) or laser-scanning confocal microscope (Carl Zeiss, Inc.). The fluorescence microscope was equipped with a digital camera (DXM 1200F; Nikon), and with either a 20×NA 0.50 or 40×NA 0.75 objective lens (Plan Fluor; Nikon). […] For quantification of staining intensity, total cell and background staining was measured using ImageJ software (NIH), and intensity of specific staining was calculated, as previously described (Burgess et al, 2010). […]

5XFAD AD-Tg mice [3] = assay: RT-qPCR of hippocampus / brain parenchyma in 5XFAD AD-Tg mice; format: in vivo, mouse
Experimental: Total RNA of the hippocampal dentate gyrus (DG) was extracted with TRI Reagent (Molecular Research Center) and purified from the lysates using an RNeasy Kit (Qiagen). Total RNA of the choroid plexus was extracted using an RNA MicroPrep Kit (Zymo Research). mRNA (1 μg) was converted into cDNA using a High Capacity cDNA Reverse Transcription Kit (Applied Biosystems). The expression of specific mRNAs was assayed using fluorescence-based quantitative real-time PCR (RT-qPCR). RT-qPCR reactions were performed using Fast-SYBR PCR Master Mix (Applied Biosystems). Quantification reactions were performed in triplicate for each sample using the standard curve method. Peptidylprolyl isomerase A (ppia) was chosen as a reference (housekeeping) gene. The amplification cycles were 95° C. for 5 s, 60° C. for 20 s, and 72° C. for 15 s. At the end of the assay, a melting curve was constructed to evaluate the specificity of the reaction. For ifn-γ and ppia gene analysis, the cDNA was pre-amplified in 14 PCR cycles with non-random PCR primers, thereby increasing the sensitivity of the subsequent real-time PCR analysis, according to the manufacturer's protocol (PreAmp Master Mix Kit; Applied Biosystems). mRNA expression was determined using TaqMan RT-qPCR, according to the manufacturer's instructions (Applied Biosystems). All RT-qPCR reactions were performed and analyzed using StepOne software V2.2.2 (Applied Biosystems). The following TaqMan Assays-on-Demand™ probes were used: Mm02342430_g1 (ppia) and Mm01168134_m1 (ifn-γ).
For all other genes examined, the following primers were used: […]

[4] = tested on: APP/PS1 mouse model of AD; settings: weekly administration regimen; cited from earlier work
[5] = AD-Tg/Foxp3-DTR+ mice, 3 weeks after last DTx injection
[6] = weekly-GA vs untreated AD-Tg mice, age 6 m

Substance | CP mRNA expression of leukocyte trafficking molecules (icam1, cxcl10, ccl2) (5XFAD AD-Tg mice [1]; AD-Tg/DTR+ vs DTx-treated AD-Tg/DTR− littermates, 1 day after last DTx injection) | Foxp3+ Tregs among CD4+ T cells accumulated within the brain (5XFAD AD-Tg mice [2]; [5]) | numbers of CD45high/CD11bhigh mo-Mϕ and CD4+ T cells in brain parenchyma (5XFAD AD-Tg mice [2]; [5]) | foxp3 and il10 mRNA expression in hippocampus (5XFAD AD-Tg mice [3]; [5]) | mRNA expression of pro-inflammatory cytokines il-12p40 and tnf-α in brain parenchyma (5XFAD AD-Tg mice [3]; [5]) | CP epithelial expression of leukocyte trafficking molecules (icam1, cxcl10, ccl2) (5XFAD AD-Tg mice [1]; weekly-GA, end of 1st or 4th week) | numbers of CD11bhighCD45high-expressing cells in hippocampus (5XFAD AD-Tg mice [2]; 2nd week of weekly-GA regimen, non-chimeric AD-Tg mice) | homing of GFP+ mo-Mϕ to the CP and adjacent ventricular spaces (5XFAD AD-Tg mice [2]; weekly-GA vs vehicle, AD-Tg/CX3CR1GFP/+ BM chimeras) | neuroinflammation (hippocampal mRNA) (5XFAD AD-Tg mice [3]; weekly-GA 100 μg s.c. over 4 weeks, 5XFAD AD-Tg mice) | hippocampal mRNA expression of anti-inflammatory cytokines IL-10 and TGF-β (5XFAD AD-Tg mice [3]; [6]) | hippocampal mRNA expression of neurotropic factors IGF-1 and BDNF (5XFAD AD-Tg mice [3]; [6]) | hippocampal mRNA expression of pro-inflammatory cytokines TNF-α, IL-1β and IL-12p40 (5XFAD AD-Tg mice [3]; [6]) | effect in the APP/PS1 mouse model of AD [4]
Diphtheria toxin [DTx] | elevated mRNA expression | marked enrichment | increased numbers; also recorded: elevated numbers | increased expression | reduced mRNA expression levels | – | – | – | – | – | – | – | –
Glatiramer acetate [GA] | – | – | – | – | – | upregulated | increased numbers | increased homing | reduced neuroinflammation | elevation | elevation | reduced expression | therapeutic effect
